Consider 4 substances from US8063018B2, “Bivalent thrombin binding molecules comprising linkers” (National Research Council of Canada, priority 2004, dated 2011).

The target of one experiment is anti-c-myc antibody 9E10. The note with it: read-out: Affinity for anti-c-myc antibody 9E10; cited from earlier work.
The target in the next experiment is α-thrombin (Homo sapiens, UniProt P00734). Briefly: Amidolytic assay of CaM-DTI and CaM-DTI2 (S-2238 or S-2366). Type of experiment: biochemical. Set-up: with a certain fixed concentration of α-thrombin (˜0.3 nM). Particulars: Ca2+ up to 5 mM.
In experiment [1] the target is T1, SH2 domain from the Grb4 adaptor protein (Mus musculus, UniProt O55033).
T1 sequence (O55033 285-379 limits assumed): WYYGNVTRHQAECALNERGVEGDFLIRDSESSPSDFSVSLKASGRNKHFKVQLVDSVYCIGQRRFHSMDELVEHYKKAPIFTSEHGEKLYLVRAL
The note with it: tyrosine-phosphorylated state; read-out: Affinity for the SH2 domain from Grb4; cited from earlier work.

In another experiment the target is thrombin (Homo sapiens, UniProt P00734). The note with it: monovalent moiety alone; cited from earlier work.

pKd: −log10 of the molar value. Non-standard residues stand in square brackets, D forms with d. Primed or numbered codes have the meaning given here. No end group written: not given here. *: point of attachment. Benzenesulfonyl(4-tBu) = CC(C)(C)c1ccc(S(=O)(=O)*)cc1; dPip′ = not defined here

Procedure for α-thrombin: Kinetics of thrombin-catalyzed hydrolysis of the chromogenic substrates S-2238 or S-2366 (Chromogenix) was followed by absorbance at 405 nm on a SpectraMax plate reader thermostated at 37° C. The concentration of the substrate was 400 μM. Inhibition assays were performed in the clotting buffer with a certain fixed concentration of α-thrombin (˜0.3 nM) such that linear progress curves were observed within at least 15 min in the absence of the inhibition. The total volume of the reaction mixture was 200 μl. […] Kinetics data from initial rate experiments were used to construct Lineweaver-Burke plot; i.e. the relationship of (substrate concentration)^−1 versus (initial velocity)^−1 which were analysed by linear regression with MicroCal Origin 6.0 program (MicroCal, Md.). The Ki values of the inhibitors were determined using the equation Ki=[I]/{(SLo/SL1)−1}, where [I] is the inhibitor concentration, SLo is the slope of the reaction in the absence of inhibitors, and SL1 is the slope of the reaction in the presence of the inhibitor.
Kinetics of thrombin-catalyzed hydrolysis of the chromogenic substrate S-2366 (Chromogenix) was followed by absorbance at 405 nm on a SpectraMax plate reader at 25° C. The concentration of the substrate S-2366 was 50 μM. Inhibition assays were performed in the clotting buffer with a certain fixed concentration of α-thrombin (˜0.6 nM). […]

Take EQKLISEEDL [c-myc sequence]: the pKd on anti-c-myc antibody 9E10 was ~6.30.
On to “Ile-Arg-Phe-Thr-Asp-Gly-Glu-Gly-(CamCKK)-Asp-Phe-Glu-Glu-Ile-Pro-Glu-Glu-Tyr-Leu-Gln [CaM-DTI2]”, for which the “Effect of Ca2+ on inhibition of the thrombin active site” value in the experiment with α-thrombin is listed as “not affected”.
As to “CPHYEKVSG [ephrinB2301-309, peptide derived from the ephrinB cytoplasmic tail]”, the pKd in experiment [1] was 6.70.
As for “Bbs-Arg-(D-Pip)-Gly ({Benzenesulfonyl(4-tBu)}-Arg-[dPip′]-Gly) [H1]”, in the experiment with thrombin, the “KI of the constituent binding moiety” value is reported as “low μM range”.
